These are literature values, as cited in patent US20050063990A1, “Compositons and methods for weight loss” (priority 2003, published 2005).

The conditions of data set [1]: animal studies (mice fed CLA).

With conjugated linoleic acid [CLA], in data set [1], the “increase in use of fat as fuel (energy expenditure)” value is 74%. Moreover, the abdominal fat entry (men classified as abdominally obese) is “decrease abdominal fat”. For the same substance, the total fat mass entry (overweight and obese humans) is on record as “reduces total fat mass”.
